ChEMBL document CHEMBL3045794, “Antimicrobial activity of thiazolyl benzenesulfonamide-condensed 2,4-thiazolidinediones derivatives” (2013)
Values after ≈ are worked out from the molar mass of the structure shown.

How the values were obtained:
Staphylococcus aureus [1] = test: Antibacterial activity against Staphylococcus aureus MTCC 96 assessed as diameter of growth inhibition zone after 24 hr by Kirby-Bauer disk diffusion method; format: functional
Pseudomonas aeruginosa [2] = test: Antibacterial activity against Pseudomonas aeruginosa MTCC 741 assessed as growth inhibition after 24 hr by Kirby-Bauer disk diffusion method; format: functional; details: MTCC 741, 24 h
Pseudomonas aeruginosa [3] = test: Antibacterial activity against Pseudomonas aeruginosa MTCC 741 assessed as diameter of growth inhibition zone after 24 hr by Kirby-Bauer disk diffusion method; format: functional
[4] = test system: Mycobacterium tuberculosis; test: Antitubercular activity against Mycobacterium tuberculosis H37Rv MTCC 200 assessed as growth inhibition measured within 10 days by BACTEC MGIT method; format: functional; details: H37Rv MTCC 200, 240 h
Escherichia coli [5] = test: Antibacterial activity against Escherichia coli MTCC 739 assessed as diameter of growth inhibition zone after 24 hr by Kirby-Bauer disk diffusion method; format: functional
Bacillus subtilis [6] = test: Antibacterial activity against Bacillus subtilis MTCC 619 assessed as diameter of growth inhibition zone after 24 hr by Kirby-Bauer disk diffusion method; format: functional
Bacillus subtilis [7] = test: Antibacterial activity against Bacillus subtilis MTCC 619 assessed as growth inhibition after 24 hr by Kirby-Bauer disk diffusion method; format: functional; details: MTCC 619, 24 h
Escherichia coli [8] = test: Antibacterial activity against Escherichia coli MTCC 739 assessed as growth inhibition after 24 hr by Kirby-Bauer disk diffusion method; format: functional; details: MTCC 739, 24 h
Staphylococcus aureus [9] = test: Antibacterial activity against Staphylococcus aureus MTCC 96 assessed as growth inhibition after 24 hr by Kirby-Bauer disk diffusion method; format: functional; details: MTCC 96, 24 h
Pseudomonas aeruginosa [10] = test: microbe, parasite or virus in culture; details: MTCC 741, 24 h, read-out: DIZ
Description: Antibacterial activity against Pseudomonas aeruginosa MTCC 741 assessed as diameter of growth inhibition zone at 100 ug/disk after 24 hr by Kirby-Bauer disk diffusion method

Escherichia coli [11] = test: microbe, parasite or virus in culture; details: MTCC 739, 24 h, read-out: DIZ
Description: Antibacterial activity against Escherichia coli MTCC 739 assessed as diameter of growth inhibition zone at 100 ug/disk after 24 hr by Kirby-Bauer disk diffusion method

Staphylococcus aureus [12] = test: Antibacterial activity against Staphylococcus aureus MTCC 96 assessed as diameter of growth inhibition zone at 100 ug/disk after 24 hr by Kirby-Bauer disk diffusion method; details: MTCC 96, 24 h, read-out: DIZ
Bacillus subtilis [13] = test: microbe, parasite or virus in culture; details: MTCC 619, 24 h, read-out: DIZ
Description: Antibacterial activity against Bacillus subtilis MTCC 619 assessed as diameter of growth inhibition zone at 100 ug/disk after 24 hr by Kirby-Bauer disk diffusion method

SMILES: Cc1cccc(C(=O)N2C(=O)S/C(=C\c3ccc(S(=O)(=O)Nc4nc(-c5ccccc5)cs4)cc3)C2=O)c1
- diameter of the inhibition zone (DIZ) (Staphylococcus aureus [1]): 18 mm
- MIC (Pseudomonas aeruginosa [2]): 100 µg/mL (≈ 178 µM)
- diameter of the inhibition zone (DIZ) (Pseudomonas aeruginosa [3]): 19 mm
- MIC99 [4]: 125 µg/mL (≈ 223 µM)
- diameter of the inhibition zone (DIZ) (Escherichia coli [5]): 18 mm
- diameter of the inhibition zone (DIZ) (Bacillus subtilis [6]): 18 mm
- MIC (Bacillus subtilis [7]): 100 µg/mL (≈ 178 µM)
- MIC (Escherichia coli [8]): 100 µg/mL (≈ 178 µM)
- MIC (Staphylococcus aureus [9]): 100 µg/mL (≈ 178 µM)

SMILES: Cc1ccc(C(=O)N2C(=O)S/C(=C\c3ccc(S(=O)(=O)Nc4nc(-c5ccccc5)cs4)cc3)C2=O)cc1
- diameter of the inhibition zone (DIZ) (Staphylococcus aureus [1]): 22 mm
- MIC (Pseudomonas aeruginosa [2]): 50 µg/mL (≈ 89 µM)
- diameter of the inhibition zone (DIZ) (Pseudomonas aeruginosa [3]): 22 mm
- MIC99 [4]: 250 µg/mL (≈ 445 µM)
- diameter of the inhibition zone (DIZ) (Escherichia coli [5]): 22 mm
- diameter of the inhibition zone (DIZ) (Bacillus subtilis [6]): 23 mm
- MIC (Bacillus subtilis [7]): 50 µg/mL (≈ 89 µM)
- MIC (Escherichia coli [8]): 50 µg/mL (≈ 89 µM)
- MIC (Staphylococcus aureus [9]): 50 µg/mL (≈ 89 µM)

SMILES: O=C1S/C(=C\c2ccc(S(=O)(=O)Nc3nc(-c4ccccc4)cs3)cc2)C(=O)N1C(=O)c1ccccc1Cl
- diameter of the inhibition zone (DIZ) (Staphylococcus aureus [1]): 24 mm
- MIC (Pseudomonas aeruginosa [2]): 12.5 µg/mL (≈ 21.5 µM)
- diameter of the inhibition zone (DIZ) (Pseudomonas aeruginosa [3]): 24 mm
- MIC99 [4]: 62.5 µg/mL (≈ 107 µM)
- diameter of the inhibition zone (DIZ) (Escherichia coli [5]): 25 mm
- diameter of the inhibition zone (DIZ) (Bacillus subtilis [6]): 26 mm
- MIC (Bacillus subtilis [7]): 6.25 µg/mL (≈ 10.7 µM)
- MIC (Escherichia coli [8]): 12.5 µg/mL (≈ 21.5 µM)
- MIC (Staphylococcus aureus [9]): 6.25 µg/mL (≈ 10.7 µM)

SMILES: O=C1S/C(=C\c2ccc(S(=O)(=O)Nc3nc(-c4ccccc4)cs3)cc2)C(=O)N1C(=O)c1cccc(Cl)c1
- diameter of the inhibition zone (DIZ) (Staphylococcus aureus [1]): 26 mm
- MIC (Pseudomonas aeruginosa [2]): 25 µg/mL (≈ 42.9 µM)
- diameter of the inhibition zone (DIZ) (Pseudomonas aeruginosa [3]): 24 mm
- MIC99 [4]: 62.5 µg/mL (≈ 107 µM)
- diameter of the inhibition zone (DIZ) (Escherichia coli [5]): 24 mm
- diameter of the inhibition zone (DIZ) (Bacillus subtilis [6]): 25 mm
- MIC (Bacillus subtilis [7]): 12.5 µg/mL (≈ 21.5 µM)
- MIC (Escherichia coli [8]): 25 µg/mL (≈ 42.9 µM)
- MIC (Staphylococcus aureus [9]): 12.5 µg/mL (≈ 21.5 µM)

SMILES: O=C1S/C(=C\c2ccc(S(=O)(=O)Nc3nc(-c4ccccc4)cs3)cc2)C(=O)N1C(=O)c1ccc(Cl)cc1
- diameter of the inhibition zone (DIZ) (Staphylococcus aureus [1]): 24 mm
- MIC (Pseudomonas aeruginosa [2]): 12.5 µg/mL (≈ 21.5 µM)
- diameter of the inhibition zone (DIZ) (Pseudomonas aeruginosa [3]): 22 mm
- MIC99 [4]: 62.5 µg/mL (≈ 107 µM)
- diameter of the inhibition zone (DIZ) (Escherichia coli [5]): 23 mm
- diameter of the inhibition zone (DIZ) (Bacillus subtilis [6]): 26 mm
- MIC (Bacillus subtilis [7]): 6.25 µg/mL (≈ 10.7 µM)
- MIC (Escherichia coli [8]): 25 µg/mL (≈ 42.9 µM)
- MIC (Staphylococcus aureus [9]): 6.25 µg/mL (≈ 10.7 µM)

SMILES: O=C1S/C(=C\c2ccc(S(=O)(=O)Nc3nc(-c4ccccc4)cs3)cc2)C(=O)N1C(=O)c1cccc([N+](=O)[O-])c1
- diameter of the inhibition zone (DIZ) (Staphylococcus aureus [1]): 21 mm
- MIC (Pseudomonas aeruginosa [2]): 62.5 µg/mL (≈ 105 µM)
- diameter of the inhibition zone (DIZ) (Pseudomonas aeruginosa [3]): 22 mm
- MIC99 [4]: 1000 µg/mL (≈ 1690 µM)
- diameter of the inhibition zone (DIZ) (Escherichia coli [5]): 22 mm
- diameter of the inhibition zone (DIZ) (Bacillus subtilis [6]): 24 mm
- MIC (Bacillus subtilis [7]): 25 µg/mL (≈ 42.2 µM)
- MIC (Escherichia coli [8]): 62.5 µg/mL (≈ 105 µM)
- MIC (Staphylococcus aureus [9]): 62.5 µg/mL (≈ 105 µM)

SMILES: O=C1S/C(=C\c2ccc(S(=O)(=O)Nc3nc(-c4ccccc4)cs3)cc2)C(=O)N1C(=O)c1ccc([N+](=O)[O-])cc1
- diameter of the inhibition zone (DIZ) (Staphylococcus aureus [1]): 25 mm
- MIC (Pseudomonas aeruginosa [2]): 25 µg/mL (≈ 42.2 µM)
- diameter of the inhibition zone (DIZ) (Pseudomonas aeruginosa [3]): 24 mm
- MIC99 [4]: 500 µg/mL (≈ 844 µM)
- diameter of the inhibition zone (DIZ) (Escherichia coli [5]): 24 mm
- diameter of the inhibition zone (DIZ) (Bacillus subtilis [6]): 24 mm
- MIC (Bacillus subtilis [7]): 12.5 µg/mL (≈ 21.1 µM)
- MIC (Escherichia coli [8]): 50 µg/mL (≈ 84.4 µM)
- MIC (Staphylococcus aureus [9]): 25 µg/mL (≈ 42.2 µM)

SMILES: O=C1S/C(=C\c2ccc(S(=O)(=O)Nc3nc(-c4ccccc4)cs3)cc2)C(=O)N1C(=O)c1ccc([N+](=O)[O-])cc1[N+](=O)[O-]
- diameter of the inhibition zone (DIZ) (Staphylococcus aureus [1]): 23 mm
- MIC (Pseudomonas aeruginosa [2]): 100 µg/mL (≈ 157 µM)
- diameter of the inhibition zone (DIZ) (Pseudomonas aeruginosa [3]): 22 mm
- MIC99 [4]: 1000 µg/mL (≈ 1570 µM)
- diameter of the inhibition zone (DIZ) (Escherichia coli [5]): 24 mm
- diameter of the inhibition zone (DIZ) (Bacillus subtilis [6]): 22 mm
- MIC (Bacillus subtilis [7]): 6.25 µg/mL (≈ 9.8 µM)
- MIC (Escherichia coli [8]): 12.5 µg/mL (≈ 19.6 µM)
- MIC (Staphylococcus aureus [9]): 12.5 µg/mL (≈ 19.6 µM)

SMILES: O=C1S/C(=C\c2ccc(S(=O)(=O)Nc3nc(-c4ccccc4)cs3)cc2)C(=O)N1C(=O)c1ccccc1
- diameter of the inhibition zone (DIZ) (Staphylococcus aureus [1]): 21 mm
- MIC (Pseudomonas aeruginosa [2]): 62.5 µg/mL (≈ 114 µM)
- diameter of the inhibition zone (DIZ) (Pseudomonas aeruginosa [3]): 22 mm
- MIC99 [4]: 125 µg/mL (≈ 228 µM)
- diameter of the inhibition zone (DIZ) (Escherichia coli [5]): 22 mm
- diameter of the inhibition zone (DIZ) (Bacillus subtilis [6]): 24 mm
- MIC (Bacillus subtilis [7]): 25 µg/mL (≈ 45.7 µM)
- MIC (Escherichia coli [8]): 62.5 µg/mL (≈ 114 µM)
- MIC (Staphylococcus aureus [9]): 62.5 µg/mL (≈ 114 µM)

SMILES: O=C(O)c1cn(C2CC2)c2cc(N3CCNCC3)c(F)cc2c1=O [CIPROFLOXACIN]
- zone of inhibition at 100 µg/disc (Pseudomonas aeruginosa [10]): 31 mm
- MIC (Pseudomonas aeruginosa [2]): ≤ 1 µg/mL
- zone of inhibition at 100 µg/disc (Escherichia coli [11]): 30 mm
- zone of inhibition at 100 µg/disc (Staphylococcus aureus [12]): 32 mm
- MIC (Bacillus subtilis [7]): ≤ 1 µg/mL
- zone of inhibition at 100 µg/disc (Bacillus subtilis [13]): 33 mm
- MIC (Escherichia coli [8]): ≤ 1 µg/mL
- MIC (Staphylococcus aureus [9]): ≤ 1 µg/mL

SMILES: NNC(=O)c1ccncc1 [ISONIAZID]
- MIC99 [4]: 0.2 µg/mL (≈ 1.46 µM)
